Data on seven compounds can be found in US5182289A, “Heterobicyclic compounds having antiinflammatory activity” (Schering Corporation, priority 1990, dated 1993).

Like-named read-outs stand apart in the source and are kept apart here.

What all share (format): in vivo, male rats
In one assay the test system is 5-LO. Kind of assay: Reversed Passive Arthus Reaction (RPAR) in the pleural cavity: LTE-4 in exudate. The protocol: (§1) Reversed Passive Arthus Reaction (RPAR) Assay
(§2) Groups of 4 male rats were injected in the penile vein with antigen (1 mg BSA in 0.2 mL of saline per rat) and 0.5 hour later injected in the pleural cavity with antibody (1.0 mg antibody protein in the IgG fraction of rabbit anti-BSA in 0.2 mL). […] After 4 hours the animals were killed with CO2, and the pleural cavities were opened and the exudate drained into a graduated conical glass centrifuge tube containing indomethacin (1.8 ug) and nordihydroguaiaretic acid (NDGA) (15 ug) to block ex vivo metabolite synthesis. The volume of the exudate was measured. The cavity was then washed out with saline-EDTA to achieve a final volume of 5.0 mL. The number of cells were determined in a Colulter Counter. The cells were spun-down (1000×g) and the exudate supernatant was added to 4 volumes of 95% ethanol and samples were kept on ice for 30 minutes. After removal of the protein precipitate (2,500×g) the ethanol extract of the exudate was dried under N2 and then stored at -20° C. For radioimmunoassay (RIA) analysis the samples were redissolved in water to a volume of 1 mL per rat. Utilizing internally spiked samples, recovery of TXB2 (tritiated thromboxane B2) and LTE4 (tritiated leukotriene-E4) from exudates was determined to be 84±2% (SEM) and 89±2% (N=4), respectively. Exudate samples were directly assayed in duplicate with the commercial ^3 H-TXB2 RIA kit from New England Nuclear and the ^3 H-LTC4 /D4 /E4 kit from Amersham. The assay was validated using reversed-phase HPLC analysis of LTs in the standard procedure described by M. W. Musch, R. W. Bryant, C. Coscollaela, R. F. Myers and M. I. Siegel, Prostaglandins, Vol. 29, pp 405-430 (1985). Samples of ethanol exudate extract were "spiked" with ^3 H-LTs to follow HPLC purification and recovery.

In a further assay the test system is CO (cyclooxygenase). Kind of assay: Reversed Passive Arthus Reaction (RPAR) in the pleural cavity: TXB-2 in exudate. The protocol: as §1, §2
Assay [1] has as its system Reversed Passive Arthus Reaction (RPAR) in the pleural cavity. Kind of assay: Reversed Passive Arthus Reaction (RPAR) in the pleural cavity: cells and fluid. As to conditions: Rattus norvegicus, 4 h; for inhibition in vivo at 25 mg/kg: dose 25 mpk; for inhibition in vivo at 40 mg/kg: dose 40 mpk; for inhibition in vivo at 20 mg/kg: dose 20 mpk. As for the experimental part: as §1, §2

[2] abbreviates: read-out: RPAR-Pleural Cavity % Inhibition cells.
The mark [3] stands for this setting: read-out: RPAR-Pleural Cavity % Inhibition fluid.

With `CC1(C)C(=O)N(c2ccc(Cl)cc2)c2ncccc21` [Compound 2, 1-(4-chlorophenyl)-1,3-dihydro-3,3-dimethyl-2H-pyrrolo[2,3-b]pyridin-2-one], in the assay on 5-LO (dose 25 mpk), the “RPAR-Pleural Cavity % Inhibition LTE-4” value amounted to 87%. The “RPAR-Pleural Cavity % Inhibition TXB-2” value in the assay on CO (cyclooxygenase) (dose 25 mpk) was found to be 78%. Further, the inhibition in vivo at 25 mg/kg in assay [1] (setting [2]) worked out at 73%; in assay [1] (setting [3]) it was 83%.

For the compound `CC1(C)C(=O)N(c2ccccc2)c2ncccc21` [Compound 1, 1,3-dihydro-3,3-dimethyl-1-phenyl-2H-pyrrolo[2,3-b]pyridin-2-one], the “RPAR-Pleural Cavity % Inhibition LTE-4” value with 5-LO (dose 40 mpk) turned out to be 54%. In addition, in the assay on CO (cyclooxygenase) (dose 40 mpk), the “RPAR-Pleural Cavity % Inhibition TXB-2” value came out at 54%. Further, the inhibition in vivo at 40 mg/kg turned out to be 70% in assay [1] (setting [2]) and 60% in assay [1] (setting [3]).

For `CC1(C)C(=O)N(c2ccc(Cl)c(Cl)c2)c2ncccc21` [Compound 6, 1-(3,4-dichlorophenyl)-1,3-dihydro-3,3-dimethyl-2H-pyrrolo[2,3-b]pyridin-2-one], the “RPAR-Pleural Cavity % Inhibition LTE-4” value with 5-LO (dose 25 mpk) was 46%. In addition, the “RPAR-Pleural Cavity % Inhibition TXB-2” value in the assay with CO (cyclooxygenase) (dose 25 mpk) is 44%. Further, the inhibition in vivo at 25 mg/kg in assay [1] (setting [2]) was 26%; in assay [1] (setting [3]) it was 25%.

For `COc1ccc(N2C(=O)C(C)(C)c3cccnc32)cc1` [Compound 8, 1,3-dihydro-3,3-dimethyl-1-(4-methoxyphenyl)-2H-pyrrolo[2,3-b]pyridin-2-one], the “RPAR-Pleural Cavity % Inhibition LTE-4” value with 5-LO (dose 25 mpk) was found to be 0%. Moreover, in the assay with CO (cyclooxygenase) (dose 25 mpk), the “RPAR-Pleural Cavity % Inhibition TXB-2” value came out at 34%. For the same compound, the inhibition in vivo at 25 mg/kg worked out at 63% in assay [1] (setting [2]) and 42% in assay [1] (setting [3]).

Regarding `CC1(C)C(=O)N(c2cccc(Cl)c2)c2ncccc21` [Compound 5, 1-(3-chlorophenyl)-1,3-dihydro-3,3-dimethyl-2H-pyrrolo[2,3-b]pyridin-2-one], the “RPAR-Pleural Cavity % Inhibition LTE-4” value in the assay on 5-LO (dose 25 mpk) is on record as 59%. Moreover, in the assay on CO (cyclooxygenase) (dose 25 mpk), the “RPAR-Pleural Cavity % Inhibition TXB-2” value is recorded as 62%. Besides, the inhibition in vivo at 25 mg/kg amounted to 51% in assay [1] (setting [2]) and 49% in assay [1] (setting [3]).

For `CC1(C)C(=O)N(c2ccc(F)cc2)c2ncccc21` [Compound 9, 1,3-dihydro-3,3-dimethyl-1-(4-fluorophenyl)-2H-pyrrolo[2,3-b]pyridin-2-one], the “RPAR-Pleural Cavity % Inhibition LTE-4” value in the assay on 5-LO (dose 20 mpk) was determined as 36%. The “RPAR-Pleural Cavity % Inhibition TXB-2” value in the assay with CO (cyclooxygenase) (dose 20 mpk) is given as 53%. In addition, the inhibition in vivo at 20 mg/kg in assay [1] (setting [2]) came out at 70%; in assay [1] (setting [3]), 43%.

For the compound `CN1C(=O)C(C)(C)c2cccnc21` [Compound 3, 1,3-dihydro-1,3,3-trimethyl-2H-pyrrolo[2,3-b]pyridin-2-one], the “RPAR-Pleural Cavity % Inhibition LTE-4” value with 5-LO (dose 25 mpk) worked out at 62%. The “RPAR-Pleural Cavity % Inhibition TXB-2” value in the assay on CO (cyclooxygenase) (dose 25 mpk) was determined as 17%. Further, the inhibition in vivo at 25 mg/kg stood at 69% in assay [1] (setting [2]) and 53% in assay [1] (setting [3]).
